In PubChem BioAssay AID1963834 (Molecular Pharmacology Branch, DTP, NCI, 2024):

System: 873145-292-R-J1-PDC complex spheroid viability
Assay: Anticancer human tumor 873145-292-R-J1-PDC patient-derived renal clear cell carcinoma cell line growth inhibition [POLQ]
Settings: for IC50: curve of first compound; for viability, T/C: stronger effect = lower value
In short: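 PDC + HUVEC + MSC complex spheroids; POLQ inhibitors ± partner drugs; top conc. at/near clinical Cmax, else 10 microM (SN-38 1 microM), half-log dilutions; 37 degrees C, 5% CO2.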

[1] = second compound 0.0316 µM, first compound 0.0316 µM
[2] = second compound 0.0316 µM, first compound 0.1 µM
[3] = second compound 0.0316 µM, first compound 0.316 µM
[4] = second compound 0.0316 µM, first compound 1 µM
[5] = second compound 0.0316 µM, first compound 3.16 µM
[6] = second compound 0.0316 µM, first compound 10 µM
[7] = second compound 0.1 µM, first compound 0.0316 µM
[8] = second compound 0.1 µM, first compound 0.1 µM
[9] = second compound 0.1 µM, first compound 0.316 µM
[10] = second compound 0.1 µM, first compound 1 µM
[11] = second compound 0.1 µM, first compound 3.16 µM
[12] = second compound 0.1 µM, first compound 10 µM
[13] = second compound 0.316 µM, first compound 0.0316 µM
[14] = second compound 0.316 µM, first compound 0.1 µM
[15] = second compound 0.316 µM, first compound 0.316 µM
[16] = second compound 0.316 µM, first compound 1 µM
[17] = second compound 0.316 µM, first compound 3.16 µM
[18] = second compound 0.316 µM, first compound 10 µM
[19] = second compound 1 µM, first compound 0.0316 µM
[20] = second compound 1 µM, first compound 0.1 µM
[21] = second compound 1 µM, first compound 0.316 µM
[22] = second compound 1 µM, first compound 1 µM
[23] = second compound 1 µM, first compound 3.16 µM
[24] = second compound 1 µM, first compound 10 µM
[25] = second compound 3.16 µM, first compound 0.0316 µM
[26] = second compound 3.16 µM, first compound 0.1 µM
[27] = second compound 3.16 µM, first compound 0.316 µM
[28] = second compound 3.16 µM, first compound 1 µM
[29] = second compound 3.16 µM, first compound 3.16 µM
[30] = second compound 3.16 µM, first compound 10 µM
[31] = second compound 10 µM, first compound 0.0316 µM
[32] = second compound 10 µM, first compound 0.1 µM
[33] = second compound 10 µM, first compound 0.316 µM
[34] = second compound 10 µM, first compound 1 µM
[35] = second compound 10 µM, first compound 3.16 µM
[36] = second compound 10 µM, first compound 10 µM
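Note: spheroids exposed to compounds for 7 days before viability readout.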
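Throughout, for viability, T/C: luminescence signal used as surrogate for viable cell content; 100% = DMSO vehicle control viability.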

Work on `CC1COCCN1c1cc(C2(S(C)(=N)=O)CC2)nc(-c2ccnc3[nH]ccc23)n1` (stereo unspecified) + Cc1cccc(N(C)C(=O)C2C(O)CCN2c2nc(C)cc(C(F)(F)F)c2C#N)c1 yielded an IC50 (second compound 0.0316 µM) of over 10 µM, an IC50 (second compound 0.1 µM) of over 10 µM and an IC50 (second compound 0.316 µM) of over 10 µM. The IC50 (second compound 1 µM) was over 10 µM, the IC50 (second compound 3.16 µM) was over 10 µM and the IC50 (second compound 10 µM) was over 10 µM. For the same compound, the viability, T/C [1] was 98.1%, the viability, T/C [2] was 102% and the viability, T/C [3] was 101%. For the same compound, the viability, T/C [4] was 95.4%, the viability, T/C [5] was 83.6% and the viability, T/C [6] was 64.5%. It also gave a viability, T/C [7] of 104%, a viability, T/C [8] of 98.5% and a viability, T/C [9] of 90.1%. For the same compound, the viability, T/C [10] was 102%, the viability, T/C [11] was 75.1% and the viability, T/C [12] was 59.4%. The viability, T/C [13] was 115%, the viability, T/C [14] was 96.6% and the viability, T/C [15] was 98.8%. It also gave a viability, T/C [16] of 87.1%, a viability, T/C [17] of 92% and a viability, T/C [18] of 60.1%. The viability, T/C [19] was 101%, the viability, T/C [20] was 99.3% and the viability, T/C [21] was 93.5%. For the same compound, the viability, T/C [22] was 96%, the viability, T/C [23] was 75.3% and the viability, T/C [24] was 54.5%. It also gave a viability, T/C [25] of 99.4%, a viability, T/C [26] of 99.6% and a viability, T/C [27] of 99.6%. For the same compound, the viability, T/C [28] was 87.2%, the viability, T/C [29] was 77.4% and the viability, T/C [30] was 55.4%. The viability, T/C [31] was 90.8%, the viability, T/C [32] was 96.3% and the viability, T/C [33] was 98.4%. The viability, T/C [34] was 91.5%, the viability, T/C [35] was 64.9% and the viability, T/C [36] was 68.8%.
In the case of `COc1cc2cc(C(=O)CCC(=O)O)sc2cc1OC` + Cc1cccc(N(C)C(=O)C2C(O)CCN2c2nc(C)cc(C(F)(F)F)c2C#N)c1, the IC50 (second compound 0.0316 µM) is reported as over 10 µM, the IC50 (second compound 0.1 µM) is reported as over 10 µM and the IC50 (second compound 0.316 µM) is reported as over 10 µM. It also gave an IC50 (second compound 1 µM) of over 10 µM, an IC50 (second compound 3.16 µM) of over 10 µM and an IC50 (second compound 10 µM) of over 10 µM. For the same compound, the viability, T/C [1] was 103%, the viability, T/C [2] was 106% and the viability, T/C [3] was 111%. The viability, T/C [4] was 105%, the viability, T/C [5] was 101% and the viability, T/C [6] was 104%. For the same compound, the viability, T/C [7] was 97.9%, the viability, T/C [8] was 115% and the viability, T/C [9] was 96.9%. It also gave a viability, T/C [10] of 92.1%, a viability, T/C [11] of 98.8% and a viability, T/C [12] of 107%. The viability, T/C [13] was 98.3%, the viability, T/C [14] was 110% and the viability, T/C [15] was 95.1%. The viability, T/C [16] was 96.1%, the viability, T/C [17] was 93.5% and the viability, T/C [18] was 97.6%. It also gave a viability, T/C [19] of 101%, a viability, T/C [20] of 98.7% and a viability, T/C [21] of 94%. The viability, T/C [22] was 100%, the viability, T/C [23] was 95.6% and the viability, T/C [24] was 103%. It also gave a viability, T/C [25] of 89%, a viability, T/C [26] of 117% and a viability, T/C [27] of 102%. The viability, T/C [28] was 99.4%, the viability, T/C [29] was 98.4% and the viability, T/C [30] was 101%. For the same compound, the viability, T/C [31] was 98.2%, the viability, T/C [32] was 95.9% and the viability, T/C [33] was 102%. The viability, T/C [34] was 97.7%, the viability, T/C [35] was 104% and the viability, T/C [36] was 103%.
In the case of `Cn1ncnc1[C@H]1c2n[nH]c(=O)c3cc(F)cc(c23)N[C@@H]1c1ccc(F)cc1` + Cc1cccc(N(C)C(=O)C2C(O)CCN2c2nc(C)cc(C(F)(F)F)c2C#N)c1, the IC50 (second compound 0.0316 µM) is reported as over 0.1 µM, the IC50 (second compound 0.1 µM) is reported as over 0.1 µM and the IC50 (second compound 0.316 µM) is reported as over 0.1 µM. It also gave an IC50 (second compound 1 µM) of over 0.1 µM, an IC50 (second compound 3.16 µM) of over 0.1 µM and an IC50 (second compound 10 µM) of over 0.1 µM. The viability, T/C (second compound 0.0316 µM, first compound 0.000316 µM) was 104%, the viability, T/C (second compound 0.0316 µM, first compound 0.001 µM) was 94% and the viability, T/C (second compound 0.0316 µM, first compound 0.00316 µM) was 102%. For the same compound, the viability, T/C (second compound 0.0316 µM, first compound 0.01 µM) was 97.5%, the viability, T/C [1] was 95.7% and the viability, T/C [2] was 98%. The viability, T/C (second compound 0.1 µM, first compound 0.000316 µM) was 104%, the viability, T/C (second compound 0.1 µM, first compound 0.001 µM) was 103% and the viability, T/C (second compound 0.1 µM, first compound 0.00316 µM) was 91.6%. The viability, T/C (second compound 0.1 µM, first compound 0.01 µM) was 93.9%, the viability, T/C [7] was 105% and the viability, T/C [8] was 88.5%. For the same compound, the viability, T/C (second compound 0.316 µM, first compound 0.000316 µM) was 112%, the viability, T/C (second compound 0.316 µM, first compound 0.001 µM) was 99% and the viability, T/C (second compound 0.316 µM, first compound 0.00316 µM) was 87.6%. The viability, T/C (second compound 0.316 µM, first compound 0.01 µM) was 89.6%, the viability, T/C [13] was 91.7% and the viability, T/C [14] was 89.3%. It also gave a viability, T/C (second compound 1 µM, first compound 0.000316 µM) of 102%, a viability, T/C (second compound 1 µM, first compound 0.001 µM) of 95.2% and a viability, T/C (second compound 1 µM, first compound 0.00316 µM) of 105%. The viability, T/C (second compound 1 µM, first compound 0.01 µM) was 97%, the viability, T/C [19] was 97.7% and the viability, T/C [20] was 96.3%. For the same compound, the viability, T/C (second compound 3.16 µM, first compound 0.000316 µM) was 97%, the viability, T/C (second compound 3.16 µM, first compound 0.001 µM) was 96.3% and the viability, T/C (second compound 3.16 µM, first compound 0.00316 µM) was 105%. For the same compound, the viability, T/C (second compound 3.16 µM, first compound 0.01 µM) was 93.5%, the viability, T/C [25] was 99.8% and the viability, T/C [26] was 91.8%. For the same compound, the viability, T/C (second compound 10 µM, first compound 0.000316 µM) was 103%, the viability, T/C (second compound 10 µM, first compound 0.001 µM) was 89.7% and the viability, T/C (second compound 10 µM, first compound 0.00316 µM) was 109%. It also gave a viability, T/C (second compound 10 µM, first compound 0.01 µM) of 90.3%, a viability, T/C [31] of 97.8% and a viability, T/C [32] of 86.9%.
